# Where “and” joins values, the source holds several entries; their conditions need not be identical. Identical values can stand only once.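 Assay format: 96-well plates, 48-hour exposure. The concentration for 50% growth inhibition is given as GI50. Definition used: TGI = concentration required for complete inhibition of growth.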
# Tests used:
# Test in all cases: inhibition of tumour cell growth, NCI panel, 48 h
# 786-0 renal = tested on: 786-0 renal
# HCC-2998 colon = tested on: HCC-2998 colon
# HL-60(TB) leukemia = tested on: HL-60(TB) leukemia
# HOP-92 NSCLC = tested on: HOP-92 NSCLC
# LOX IMVI melanoma = tested on: LOX IMVI melanoma
# MOLT-4 leukemia = tested on: MOLT-4 leukemia
# NCI-H226 lung = tested on: NCI-H226 lung
# NCI-H522 lung = tested on: NCI-H522 lung
# OVCAR-8 ovarian = tested on: OVCAR-8 ovarian
# SN12C renal = tested on: SN12C renal
Structure (SMILES),GI50 (786-0 renal) [µM],TGI (786-0 renal) [µM],GI50 (HCC-2998 colon) [µM],TGI (HCC-2998 colon) [µM],GI50 (HL-60(TB) leukemia),TGI (HL-60(TB) leukemia) [µM],GI50 (HOP-92 NSCLC) [µM],TGI (HOP-92 NSCLC) [µM],GI50 (LOX IMVI melanoma),TGI (LOX IMVI melanoma) [µM],GI50 (MOLT-4 leukemia) [µM],TGI (MOLT-4 leukemia) [µM],GI50 (NCI-H226 lung) [µM],TGI (NCI-H226 lung) [µM],GI50 (NCI-H522 lung),TGI (NCI-H522 lung) [µM],GI50 (OVCAR-8 ovarian) [µM],TGI (OVCAR-8 ovarian) [µM],GI50 (SN12C renal),TGI (SN12C renal) [µM]
CC(NCCC(=O)N(CCC(=O)N(CCC(=O)N(CCC(=O)N(CCC(=O)N(CCC(=O)N(CCC(=O)N(CCC(=O)N(CCC(=O)N(CCC(=O)O)[C@H](C)c1ccccc1)[C@H](C)c1ccccc1)[C@H](C)c1ccccc1)[C@H](C)c1ccccc1)[C@H](C)c1ccccc1)[C@H](C)c1ccccc1)[C@H](C)c1ccccc1)[C@H](C)c1ccccc1)[C@H](C)c1ccccc1)c1ccccc1 (stereo not given in full),3.46,> 75,1.38,3.11,2.44 µM,13.9,0.753,2.34,1.17 µM,2.37,1.61,6.7,3.62,20.2,2.12 µM,24.5,3.45,> 47.1,3.66 µM,> 75
O=C(c1ccccc1)C(Br)C(Br)c1cccc([N+](=O)[O-])c1 (stereo not given),1.61,3.07,1.57,2.95,2.04 µM,4.68,1.55,3.89,1.36 µM,2.77,2.09,5.39,1.74,3.46,1.11 µM,2.57,3.35,12.7,1.88 µM,4.21
CCC[CH2][Sn]([CH2]CCC)([CH2]CCC)[O]C(=O)c1ccc(Cl)cc1Cl,0.13,0.259,0.168,0.31,0.187 µM,0.494,0.102,0.301,0.148 µM,0.303,0.215,1.71,,,0.0784 µM,0.251,0.183,0.373,0.145 µM,0.35
CN(C)CC1C(=O)O[C@H]2[C@H]1CC/C(COC(=O)c1cc3ccccc3[nH]1)=C\CC[C@@]1(C)O[C@@H]21 (stereo not given in full),1.69,4.88,1.78,3.58,0.663 µM,3.53,1.53,3.62,0.5 µM,0.992,1.98,7.32,3.23,9.35,1.32 µM,3.05,2.13,7.48,2.2 µM,6.08
CC(C)COCC(CN(Cc1ccccc1)c1ccccc1)N1CCCC1 (stereo not given),3.46,12.8,2.25,6.16,3.09 µM,7.56,1.66,6.88,2.48 µM,8.2,3.61,13.1,2.28,9.48,1.61 µM,3.35,3.75,14.9,3.48 µM,15.4
COc1cccc(OCCCN)c1-c1cc(Nc2cnc(C#N)cn2)n[nH]1,0.00328,0.706,0.00484,11.2,0.00877 µM and 0.0231 µM,1.14,< 0.0166,8.76,0.0166 µM and 0.0254 µM,9.07,0.00391,5.69,2.23,8.39,0.261 µM and 0.0454 µM,2.06,0.00591,1.44,0.189 µM and 0.13 µM,10.8
CNCCNc1c2c(c(NCCNC)c3[nH]ccc13)C(=O)c1ccccc1C2=O,0.0646,0.821,0.203,0.649,0.195 µM,0.838,0.418,2.37,< 0.0231 µM,0.0717,< 0.0261,,0.215,1.84,0.117 µM,0.339,0.0578,0.393,< 0.0257 µM,0.097
COC(=O)NN=C1C(C)(C)C(=O)C1(C)C,,> 100,,> 100,,> 100,,> 100,,> 100,,> 100,,> 100,,> 100,,> 100,,
CN(C)CCNC(=O)c1cccc2[nH]c(-c3cccnc3)nc12,,55.6,,43.4,,> 100,,53.9,,48.7,,> 100,,56.6,,,,44.1,,54.4
O=[N+]([O-])c1cc(C2SCc3nc4ccccc4n32)ccc1Cl (stereo not given),,> 100,,34.3,,42.4,,49.3,,,,> 100,,61.8,,77.1,,> 100,,33.8
C=C1C(=O)OC2C=C(CCC(C)=O)C(C)C(OC(C)=O)CC12 (stereo not given),,21.4,,21.5,,8.89,,12.9,,3.34,,34.1,,32.8,,,,36,,32.1
Fc1ccccc1C1SCc2nc3ccccc3n21 (stereo not given),,> 100,,> 100,,44.6,,72.7,,,,> 100,,> 100,,> 100,,> 100,,> 100
CNC(=O)CC1NC(=O)c2csc(n2)-c2ccc(-c3nc(C4=NC(C(=O)N5CCCC5C(N)=O)CO4)cs3)nc2-c2csc(n2)-c2csc(n2)C(C(C)C)NC(=O)CNC(=O)c2csc(n2)C(C(C)C)NC(=O)c2nc1sc2C (stereo not given),> 25,> 25,,2.31,< 0.001 µM,,> 25,> 25,> 25 µM,> 25,1.63,> 25,> 25,> 25,,,> 25,> 25,> 25 µM,> 25
O=C1C2C=CC(C2)C(c2ccc(O)cc2)N1O (stereo not given),,> 100,,> 100,,> 100,,> 100,,,,> 100,,> 100,,> 100,,> 100,,> 100
COc1cc(-n2cc(-c3ccc(Cl)cc3)nc2SCc2cccc(C#N)c2)cc(OC)c1OC,25.1,92.5,> 100,> 100,> 100 µM,> 100,18.8,86.5,> 100 µM,> 100,37.5,> 100,41.3,> 100,47 µM,> 100,,,46 µM,> 100

# Reference: PubChem BioAssay (NCI)
